Target: T1, Human MTHFD2 (Homo sapiens, UniProt P13995)
T1 construct: residues 36-350 in Uniport ID P13995; His6 (N); made in house; host or cells: E. coli
T1 sequence (P13995 36-350): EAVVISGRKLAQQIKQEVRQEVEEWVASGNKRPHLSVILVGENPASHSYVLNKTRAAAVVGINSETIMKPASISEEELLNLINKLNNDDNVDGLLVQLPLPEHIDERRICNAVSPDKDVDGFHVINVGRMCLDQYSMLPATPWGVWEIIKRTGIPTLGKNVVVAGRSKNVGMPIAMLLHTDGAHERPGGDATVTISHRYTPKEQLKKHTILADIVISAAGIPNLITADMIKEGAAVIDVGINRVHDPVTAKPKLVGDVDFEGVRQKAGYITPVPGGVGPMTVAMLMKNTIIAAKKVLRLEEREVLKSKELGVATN
Experiment: MTHFD2 Activity Assay (dehydrogenase activity, diaphorase/resazurin coupled fluorescence)
Format: biochemical
Conditions: inhibitory activity (IC50 and/or binding constant); 0.2 nM MTHFD2, 11 concentrations
Summary of the method: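 Steps: compound + 0.2 nM enzyme, 15 min, pH 8.0 Hepes buffer; add 70 μM CH2-THF, 1 mM NAD+, 100 μM resazurin, diaphorase; 30 min; quench with EDTA; read fluorescence. Data normalized to DMSO (100%) and no-enzyme (0%) wells.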

Row | Compound | IC50
1 | Cn1c(N)nc2c1c(=O)n(Cc1cc3cc(Cl)ccc3[nH]1)c(=O)n2C [Example 241, 8-amino-1-((5-chloro-1H-indol-2-yl)methyl)-3,7-dimethyl-1H-purine-2,6(3H,7H)-dione] | 5000 to 10000 nM
2 | Cn1cnc2c1c(=O)n(Cc1cc3cc(Cl)ccc3n1C)c(=O)n2C [Example 242, 1-((5-chloro-1-methyl-1H-indol-2-yl)methyl)-3,7-dimethyl-1H-purine-2,6(3H,7H)-dione] | 1000 to 5000 nM
3 | COc1ccc2[nH]c(Cn3c(=O)c4c(nc(N)n4C)n(C)c3=O)cc2c1 [Example 243, 8-amino-1-((5-methoxy-1H-indol-2-yl)methyl)-3,7-dimethyl-1H-purine-2,6(3H,7H)-dione] | > 10000 nM
4 | Cn1c(C(N)=O)nc2c1c(=O)n(Cc1ccc(Cl)c(Cl)c1)c(=O)n2C [Example 244, 1-(3,4-dichlorobenzyl)-3,7-dimethyl-2,6-dioxo-2,3,6,7-tetrahydro-1H-purine-8-carboxamide] | 1000 to 5000 nM
5 | Cn1c(NC2COC2)nc2c1c(=O)n(Cc1ccc(Cl)c(Cl)c1)c(=O)n2C [Example 245, 1-(3,4-dichlorobenzyl)-3,7-dimethyl-8-(oxetan-3-ylamino)-1H-purine-2,6(3H,7H)-dione] | 10 to 1000 nM
6 | Cn1c(=O)n(Cc2ccc(Cl)c(Cl)c2)c(=O)c2c1ncn2CC(N)=O [Example 246, 2-(1-(3,4-dichlorobenzyl)-3-methyl-2,6-dioxo-2,3-dihydro-1H-purin-7(6H)-yl)acetamide] | > 10000 nM
7 | Cn1c(=O)n(Cc2ccc(Cl)c(Cl)c2)c(=O)c2c1ncn2CCO [Example 248, 1-(3,4-dichlorobenzyl)-7-(2-hydroxyethyl)-3-methyl-1H-purine-2,6(3H,7H)-dione] | 5000 to 10000 nM
8 | COc1cc(Cn2c(=O)c3c(ncn3C)n(C)c2=O)ccc1Cl [Example 249, 1-(4-chloro-3-methoxybenzyl)-3,7-dimethyl-1H-purine-2,6(3H,7H)-dione] | > 10000 nM
9 | CCn1c(=O)n(Cc2ccc(Cl)c(Cl)c2)c(=O)c2c1ncn2C [Example 250, 1-(3,4-dichlorobenzyl)-3-ethyl-7-methyl-1H-purine-2,6(3H,7H)-dione] | 5000 to 10000 nM
10 | Cn1c(=O)n(Cc2ccc(Cl)c(Cl)c2)c(=O)c2[nH]cnc21 [Example 251, 1-(3,4-dichlorobenzyl)-3-methyl-1H-purine-2,6(3H,7H)-dione] | > 10000 nM
11 | COCc1cc(Cn2c(=O)c3c(ncn3C)n(C)c2=O)ccc1Cl [Example 252, 1-(4-chloro-3-(methoxymethyl)benzyl)-3,7-dimethyl-1H-purine-2,6(3H,7H)-dione] | > 10000 nM
12 | Cn1cnc2c(=O)n(Cc3ccc(Cl)c(Cl)c3)c(=O)n(C)c21 [Example 253] | > 10000 nM
13 | Cn1c(NC2CCC(CO)C2)nc2c1c(=O)n(Cc1ccc(Cl)c(Cl)c1)c(=O)n2C (stereo not drawn) [Example 255, 1-(3,4-dichlorobenzyl)-8-(3-(hydroxymethyl)cyclopentylamino)-3,7-dimethyl-1H-purine-2,6(3H,7H)-dione] | 10 to 1000 nM
14 | Cn1cnc2c1c(=O)n(Cc1ccc(Cl)c(C#N)c1)c(=O)n2C [Example 256, 2-chloro-5-((3,7-dimethyl-2,6-dioxo-2,3,6,7-tetrahydro-1H-purin-1-yl)methyl)benzonitrile] | 1000 to 5000 nM
15 | Cn1cnc2c1c(=O)n(Cc1cc3cc(C#N)ccc3[nH]1)c(=O)n2C [Example 257, 2-((3,7-dimethyl-2,6-dioxo-2,3,6,7-tetrahydro-1H-purin-1-yl)methyl)-1H-indole-5-carbonitrile] | 1000 to 5000 nM
16 | CCOC(=O)[C@H]1C[C@@H](Nc2nc3c(c(=O)n(Cc4ccc(Cl)c(Cl)c4)c(=O)n3C)n2C)C1 [Example 258, (±)-(cis)-ethyl 3-(1-(3,4-dichlorobenzyl)-3,7-dimethyl-2,6-dioxo-2,3,6,7-tetrahydro-1H-purin-8-ylamino)cyclobutanecarboxylate] | 10 to 1000 nM
17 | Cn1c(N[C@H]2C[C@@H](C(=O)O)C2)nc2c1c(=O)n(Cc1ccc(Cl)c(Cl)c1)c(=O)n2C [Example 259, (±)-(cis)-3-(1-(3,4-dichlorobenzyl)-3,7-dimethyl-2,6-dioxo-2,3,6,7-tetrahydro-1H-purin-8-ylamino)cyclobutanecarboxylic acid] | 10 to 1000 nM

The remaining lines, values ahead:

Row | IC50 | Compound
18 | 10 to 1000 nM | Cn1c(NC2CCCC(C(=O)O)C2)nc2c1c(=O)n(Cc1ccc3cc[nH]c3c1)c(=O)n2C (stereo not drawn) [Example 260, 3-(1-((1H-indol-6-yl)methyl)-3,7-dimethyl-2,6-dioxo-2,3,6,7-tetrahydro-1H-purin-8-ylamino)cyclohexanecarboxylic acid]
19 | 10 to 1000 nM | Cn1c(N[C@H]2C[C@@H](CO)C2)nc2c1c(=O)n(Cc1ccc(Cl)c(Cl)c1)c(=O)n2C [Example 261, (±)-1-(3,4-dichlorobenzyl)-8-((cis)-3-(hydroxymethyl)cyclobutylamino)-3,7-dimethyl-1H-purine-2,6(3H,7H)-dione]
20 | > 10000 nM | Cn1c(N[C@@H]2CC[C@@H](O)C2)nc2c(=O)n(Cc3ccc(Cl)c(Cl)c3)c(=O)n(C)c21 [Example 262, 1-(3,4-dichlorobenzyl)-8-((1R,3R)-3-hydroxycyclopentylamino)-3,9-dimethyl-1H-purine-2,6(3H,9H)-dione]
21 | 5000 to 10000 nM | Cn1cnc2c1c(=O)n(Cc1ccc3cc[nH]c3c1)c(=O)n2C [Example 263, 1-((1H-indol-6-yl)methyl)-3,7-dimethyl-1H-purine-2,6(3H,7H)-dione]
22 | 10 to 1000 nM | Cn1c(N[C@H]2CC[C@@H](C(=O)O)CC2)nc2c1c(=O)n(Cc1ccc(Cl)c(Cl)c1)c(=O)n2C [Example 264, (±)-(cis)-4-((1-(3,4-dichlorobenzyl)-3,7-dimethyl-2,6-dioxo-2,3,6,7-tetrahydro-1H-purin-8-yl)amino)cyclohexanecarboxylic acid]
23 | 10 to 1000 nM | CC(O)C1CCC(Nc2nc3c(c(=O)n(Cc4ccc(Cl)c(Cl)c4)c(=O)n3C)n2C)C1 (stereo not drawn) [Example 265, 1-(3,4-dichlorobenzyl)-8-(3-(1-hydroxyethyl)cyclopentylamino)-3,7-dimethyl-1H-purine-2,6(3H,7H)-dione]
24 | 10 to 1000 nM | Cn1c(N[C@H]2C[C@H](C(=O)O)C2)nc2c1c(=O)n(Cc1ccc(Cl)c(Cl)c1)c(=O)n2C [Example 266]
25 | 1000 to 5000 nM | COCC1CCC(Nc2nc3c(c(=O)n(Cc4ccc(Cl)c(Cl)c4)c(=O)n3C)n2C)C1 (stereo not drawn) [Example 267, 1-(3,4-dichlorobenzyl)-8-(3-(methoxymethyl)cyclopentylamino)-3,7-dimethyl-1H-purine-2,6(3H,7H)-dione]
26 | 10 to 1000 nM | Cn1c(N[C@H]2C[C@H](CO)C2)nc2c1c(=O)n(Cc1ccc(Cl)c(Cl)c1)c(=O)n2C [Example 268]
27 | 10 to 1000 nM | Cn1c(Nc2ccc(C(=O)O)cc2)nc2c1c(=O)n(Cc1ccc(Cl)c(Cl)c1)c(=O)n2C [Example 269, 4-[[1-[(3,4-dichlorophenyl)methyl]-3,7-dimethyl-2,6-dioxo-purin-8-yl]amino]benzoic acid]
28 | 1000 to 5000 nM | Cn1c(C(O)C2CCC(C(=O)O)CC2)nc2c1c(=O)n(Cc1ccc(Cl)c(Cl)c1)c(=O)n2C (stereo not drawn) [Example 270, 4-((1-(3,4-dichlorobenzyl)-3,7-dimethyl-2,6-dioxo-2,3,6,7-tetrahydro-1H-purin-8-yl)(hydroxy)methyl)cyclohexanecarboxylic acid]
29 | 10 to 1000 nM | Cn1c(NC2CC2)nc2c1c(=O)n(Cc1ccc(Cl)c(Cl)c1)c(=O)n2C [Example 271, 8-(cyclopropylamino)-1-[(3,4-dichlorophenyl)methyl]-3,7-dimethyl-purine-2,6-dione]
30 | 10 to 1000 nM | Cn1c(N[C@H]2CC[C@H](C(=O)O)CC2)nc2c1c(=O)n(Cc1ccc(Cl)c(Cl)c1)c(=O)n2C [Example 272, (±)-trans-4-[[1-[(3,4-dichlorophenyl)methyl]-3,7-dimethyl-2,6-dioxo-purin-8-yl]amino]cyclohexanecarboxylic acid]
31 | 1000 to 5000 nM | COCCNc1nc2c(c(=O)n(Cc3ccc(Cl)c(Cl)c3)c(=O)n2C)n1C [Example 273, 1-[(3,4-dichlorophenyl)methyl]-8-(2-methoxyethylamino)-3,7-dimethyl-purine-2,6-dione]
32 | 1000 to 5000 nM | CC(=O)Nc1nc2c(c(=O)n(Cc3ccc(Cl)c(Cl)c3)c(=O)n2C)n1C [Example 274, N-[1-[(3,4-dichlorophenyl)methyl]-3,7-dimethyl-2,6-dioxo-purin-8-yl]acetamide]
33 | 10 to 1000 nM | Cn1c(N[C@@H]2CC[C@H](CO)C2)nc2c1c(=O)n(Cc1ccc(Cl)c(Cl)c1)c(=O)n2C [Example 276, 1-(3,4-dichlorobenzyl)-8-((1R,3S)-3-(hydroxymethyl)cyclopentylamino)-3,7-dimethyl-1H-purine-2,6(3H,7H)-dione]
34 | 10 to 1000 nM | Cn1c(Nc2ccnc(CCC(=O)O)c2)nc2c1c(=O)n(Cc1ccc(Cl)c(Cl)c1)c(=O)n2C [Example 277, 3-(4-(1-(3,4-dichlorobenzyl)-3,7-dimethyl-2,6-dioxo-2,3,6,7-tetrahydro-1H-purin-8-ylamino)pyridin-2-yl)propanoic acid]
35 | 10 to 1000 nM | Cn1c(NCC(F)(F)F)nc2c1c(=O)n(Cc1ccc(Cl)c(Cl)c1)c(=O)n2C [Example 278, 1-[(3,4-dichlorophenyl)methyl]-3,7-dimethyl-8-(2,2,2-trifluoroethylamino)purine-2,6-dione]
36 | 1000 to 5000 nM | Cn1c(Nc2cc(CCC(=O)O)ccn2)nc2c1c(=O)n(Cc1ccc(Cl)c(Cl)c1)c(=O)n2C [Example 281, 3-(2-(1-(3,4-dichlorobenzyl)-3,7-dimethyl-2,6-dioxo-2,3,6,7-tetrahydro-1H-purin-8-ylamino)pyridin-4-yl)propanoic acid]

Source: patent US12187728B2 (Raze Therapeutics, Inc., priority 2015, dated 2025)
